For assay [1], the system named is RSV (A2). The assay can be described thus: viral yield reduction assay (growth inhibition), RSV. The assay is classed as cell-based, human respiratory syncytial virus. The following applies: 4 days; for IC50: human respiratory syncytial virus, 96 h. The protocol: (§1) The compounds were tested for biological activity using viral yield reduction assays. Host cells (indicated as HF for human foreskin fibroblasts and as vero, the commonly used African green monkey cell line, in Tables 1 and 1a) were plated at 4×10^4 cells/well in cell growth medium with 2% fetal bovine serum or 2% calf serum in 96-well plates (0.1 ml/well) and incubated overnight. The compounds were added to individual wells to give final concentrations ranging from 50 to 0.1 μg/ml in two-fold concentration steps. After 1 hour, virus was added, and the incubation was continued for 4 days with RSV or CMV and for 2 days with HSV. At the end of the experiment, the amount of virus growth was quantitated and the yield reduction at various concentrations of compound was calculated. This allows estimation of the concentration of compound giving 50% reduction in virus growth (IC50).
(§2) Table 1. Fifty percent inhibitory concentrations for growth inhibition
(§3) (yield reduction) and for plaque formation were determined as described i
(§4) the text. The virus strains used were RSV (A2), CMV (Ad169), HSV1
(§5) (Patton). The host cells used were human foreskin fibroblasts (HF) and […]

Another assay concerns viral protein synthesis. The assay can be described thus: viral protein synthesis in infected vero cells (mechanism of action). The assay is classed as cell-based. The protocol:
The time in the virus life-cycle when Example 1 exerts its effect was determined to increase understanding of the mechanism of action. This was accomplished by adding and removing the compound at various times relative to infection and assessing the effect on viral protein synthesis. Vero cells were infected on ice for 1 hour, unadsorbed virus was removed, and then the infected cells were incubated at 37° C. for 18 hours (virus adsorption will occur on ice, but fusion will not proceed until the temperature is raised to 18° C. or above). After the 18 hour incubation at 37° C. (when the bulk of ongoing protein synthesis was directed by viral RNAs), ^35 S-methionine was added for 2 hours, the cells were lysed, and the labeled proteins were analyzed on SDS-PAGE gels. The viral N, P, and M proteins were then evident. […] However, when the compound of Example 1 was added even after only 5 minutes incubation at 37° C., viral protein production was unimpeded. Therefore, the process inhibited was the fusion process or some closely succeeding step which is required for later viral gene expression.

Assay [2] has as its system syncytium formation in cells previously infected with RSV. The assay can be described thus: syncytium formation in RSV-infected vero cells. The assay is classed as cell-based, African green monkey. The protocol:
This was done by infecting vero cells at a multiplicity of infection of 3 for 1 hour, then replacing the original medium with fresh medium. After 6 hours incubation, compound was added. After 24 and 48 hours, the infected cells were examined under the microscope to determine the extent of syncytium formation. Differences in the extent of syncytium formation due to the presence of compound were easily recognized and the compounds were easily ranked in terms of potency in this assay. The actual IC50's as judged by this method are approximate. They were 0.3 and 0.05 μg/ml for compounds 16 and 17, respectively.

The subject of another assay is RSV A2. The assay is classed as in vivo, cotton rats. The following applies: for inhibition of RSV in vivo (summary): cotton rats, all experiments of Table 3.
Assay [3] concerns RSV. The class given is in vivo, cotton rats. The following applies: EXPT 3, Lavage/Plaque.
Assay [4] has as its system RSV. The assay is classed as in vivo, cotton rats. The following applies: EXPT 3, Lung/Plaque.
Assay [5] concerns CMV (Ad169). Nature of the assay: viral yield reduction assay (growth inhibition), CMV. The assay is classed as cell-based, human cytomegalovirus. The following applies: Human betaherpesvirus 5, AD169, 96 h, HF cells, 4 days. As for the experimental part: as §1, §2, §3, §4, §5
Assay [6] deals with RSV (A2). Nature of the assay: viral plaque reduction assay, RSV A2. The class given is cell-based, human respiratory syncytial virus. The following applies: Table 1; vero cells.
Assay [7] relates to CMV (Ad169). The assay can be described thus: viral plaque reduction assay, CMV Ad169. The following applies: Table 1; HF cells. The class given is cell-based, human cytomegalovirus.
The mark [8] stands for this setting: EXPT 3, i.n. 30 mg/k d 1,2,3, Lavage/CPE.
[9] abbreviates: EXPT 3, i.n. d 0 15 mg/k, d 1 30 mg/k, Lavage/CPE.
[10] abbreviates: EXPT 3, i.n. d 0 15 mg/k, d 1,2,3 30 mg/k, Lavage/CPE.
The mark [11] stands for this setting: EXPT 3, i.p. 30 mg/k d 1,2,3, Lavage/CPE.
Where [12] appears, read: i.n. d 0 15 mg/k, d 1,2,3 30 mg/k.

Several values for one entry are separate records, joined by “and”; a condition that tells them apart may be missing. Equal entries are not always repeated. Structures can show the parent of a compound that is named as a salt. Where two headings read alike, the source gives them in different places.

This is an account of results in US5852015A, “Triazine containing anionic compounds useful as antiviral agents” (American Cyanamid Company, priority 1997, dated 1998).

For the compound “4-[4.6-Di[3-aminophenyl-N,N-bis(2-carbamoylethyl)sulfonylimino]-1,3,5-triazin-2-ylamino]-4'-(4-[3-aminophenyl-N,N-bis(2-carbamoylethyl)sulfonylimino]- 6-[3-aminophenyl-N,N bis(3-propionic acid)-1,3,5-triazin-2-ylamino]-stilbene-2,2'-disulphonic acid, disodium salt [Example 10]”, in the assay on RSV (A2) [1] (HF cells), the “IC50 in growth inhibition RSV/HF” value was less than 3 µg/mL. In the assay with RSV (A2) [1] (vero cells), the “IC50 in growth inhibition RSV/VERO” value is 0.7 µg/mL.
For “4,4'-Bis[4,6-di[4-amino-N'-[3-aminophenyl-N,N-bis(2-hydroxyethyl)sulfonylimino]-benzensulfoamide]-1,3,5-triazin-2-ylamino]-stilbene-2,2'-disulfonic acid, disodium salt [Example 25]”, the “IC50 in growth inhibition RSV/VERO” value in the assay with RSV (A2) [1] (vero cells) was 30 µg/mL.
As to `NC(=O)CCN(CCC(N)=O)S(=O)(=O)c1cccc(Nc2nc(Nc3cccc(S(=O)(=O)N(CCC(N)=O)CCC(N)=O)c3)nc(Nc3ccc(/C=C/c4ccc(Nc5nc(Nc6cccc(S(=O)(=O)N(CCC(N)=O)CCC(N)=O)c6)nc(Nc6cccc(S(=O)(=O)N(CCC(N)=O)CCC(N)=O)c6)n5)cc4S(=O)(=O)O)c(S(=O)(=O)O)c3)n2)c1` [Example 1, 4,4'-Bis[4.6-di[3-aminophenyl-N,N-bis(2-carbamoyl-ethyl)sulfonylimino]-1,3,5-triazin-2-ylamino]-stilbene-2,2'-disulfonic acid, disodium salt], in the assay on viral protein synthesis (10 μg/ml added immediately after virus adsorption and before raising temperature to 37° C.), the viral protein synthesis result is given as “fully prevented”. Moreover, the viral protein production entry with viral protein synthesis (added after only 5 minutes incubation at 37° C.) is recorded as “unimpeded”. In addition, in assay [2], the “inhibition of syncytium formation” value was “inhibit syncytium formation”. The “inhibition of RSV in vivo (summary)” value in the assay with RSV A2 is “inhibit RSV in vivo”. For the same compound, the Mean titer in the assay with RSV A2 (rat, in vivo, disodium salt) was 2.8 log10/g lung and 1.73 log10/g lung and 3.43 log10/g lung.
In the case of `NC(=O)CCN(CCC(N)=O)S(=O)(=O)c1cccc(Nc2nc(Nc3cccc(S(=O)(=O)N(CCC(N)=O)CCC(N)=O)c3)nc(Nc3ccc(-c4ccc(Nc5nc(Nc6cccc(S(=O)(=O)N(CCC(N)=O)CCC(N)=O)c6)nc(Nc6cccc(S(=O)(=O)N(CCC(N)=O)CCC(N)=O)c6)n5)cc4S(=O)(=O)O)c(S(=O)(=O)O)c3)n2)c1` [Example 4, 4,4'-Bis[4,6-di[3-aminophenyl-N,N-bis(2-carbamoyl-ethyl)sulfonylimino]-1,3,5-triazin-2-ylamino]-biphenyl-2,2'-disulfonic acid, disodium salt], the “inhibition of syncytium formation” value in assay [2] was “inhibit syncytium formation”. Besides, the Fold red. amounted to 2.51 log10 with RSV A2 (setting [8]); 2.52 log10 in the assay with RSV A2 (setting [9]); 2.13 log10 in the assay on RSV A2 (setting [10]); 0 log10 in the assay on RSV A2 (setting [11]); 1.63 log10 with RSV A2 (rat, in vivo); 1.2 log10 in the assay with RSV [3] (i.n. 30 mg/k d 1,2,3). Moreover, the Fold red. with RSV [3] (i.n. d 0 15 mg/k, d 1 30 mg/k) was 2.03 log10; with RSV [3] (setting [12]) it was 2.04 log10; with RSV [3] (i.p. 30 mg/k d 1,2,3), 0.09 log10; with RSV [4] (i.n. 30 mg/k d 1,2,3) it was 1.18 log10; with RSV [4] (i.n. d 0 15 mg/k, d 1 30 mg/k), 2.23 log10; in the assay on RSV [4] (setting [12]), 2.3 log10. In the assay with RSV [4] (i.p. 30 mg/k d 1,2,3), this compound displayed a Fold red. of 0.26 log10. In addition, the Mean titer in the assay with RSV A2 (setting [8]) is listed as 1.67 log10/g lung; in the assay on RSV A2 (setting [9]), 1.66 log10/g lung; in the assay on RSV A2 (setting [10]), 2.05 log10/g lung; in the assay on RSV A2 (setting [11]), 4.18 log10/g lung; in the assay with RSV A2 (rat, in vivo) it was 2.05 log10/g lung; in the assay on RSV [3] (i.n. 30 mg/k d 1,2,3) it was 3.09 log10/g lung. Besides, the Mean titer with RSV [3] (i.n. d 0 15 mg/k, d 1 30 mg/k) is listed as 2.26 log10/g lung; in the assay on RSV [3] (setting [12]), 2.25 log10/g lung; in the assay on RSV [3] (i.p. 30 mg/k d 1,2,3), 4.1 log10/g lung; in the assay on RSV [4] (i.n. 30 mg/k d 1,2,3), 3.37 log10/g lung; with RSV [4] (i.n. d 0 15 mg/k, d 1 30 mg/k) it was 2.32 log10/g lung; in the assay with RSV [4] (setting [12]), 2.25 log10/g lung. In the assay with RSV [4] (i.p. 30 mg/k d 1,2,3), the Mean titer was 3.92 log10/g lung. The “inhibition of RSV in vivo (summary)” value in the assay with RSV A2 is reported as “inhibit RSV in vivo”.
For `NC(=O)c1ncn([C@@H]2O[C@H](CO)[C@@H](O)[C@H]2O)n1` [Ribavirin, reference compound], in the assay on RSV A2 (rat, in vivo), the Fold red. was 0.8 log10 and the Mean titer is given as 3.3 log10/g lung.
Take `NC(=O)CCN(CCC(N)=O)S(=O)(=O)c1cccc(Nc2nc(Cl)nc(Nc3ccc(/C=C/c4ccc(Nc5nc(Cl)nc(Nc6cccc(S(=O)(=O)N(CCC(N)=O)CCC(N)=O)c6)n5)cc4S(=O)(=O)O)c(S(=O)(=O)O)c3)n2)c1` [Example 8, 4,4'-Bis[4-chloro-6-[3-aminophenyl-N,N-bis(2-carbamoylethyl)sulfonylimino]-1,3,5-triazin-2-ylamino]-stilbene-2,2'-disulphonic acid, disodium salt]: the IC50 is greater than 50 µg/mL in the assay with RSV (A2) [1] (HF cells, read-out: IC50 in growth inhibition RSV/HF); greater than 50 µg/mL in the assay on RSV (A2) [1] (vero cells, read-out: IC50 in growth inhibition RSV/VERO); greater than 50 µg/mL in the assay with CMV (Ad169) [5].
For “9.9-Dioxo-2,7-Bis[4,6-di[3-aminophenyl-N,N-bis(2-carbamoylethyl)sulfonylimino]-1,3,5-triazin-2-ylamino]-dibenzothiophen-3.6-disulfonic acid, disodium salt [Example 23]”, the “IC50 in plaque assay RSV/VERO” value in the assay with RSV (A2) [6] was 8 µg/mL. For the same compound, the “IC50 in plaque assay CMV/HF” value in the assay on CMV (Ad169) [7] amounted to 20 µg/mL.
With “4,4'-Bis[4-chloro-6-di[4-amino-N'-[3-aminophenyl-N,N-bis(2-carbamoylethyl)sulfonylimino]-benzamide]-1,3,5-triazin-2-ylamino]-stilbene-2,2'-disulfonic acid, disodium salt [Example 24]”, the “IC50 in growth inhibition RSV/VERO” value in the assay on RSV (A2) [1] (vero cells) was found to be 50 µg/mL.
